For one series, the target named is Prothrombin (Homo sapiens, UniProt P00734). Description: Inhibitory activity against Thrombin.
A further series concerns the target Coagulation factor X (Homo sapiens, UniProt P00742). Description: Inhibitory activity against Coagulation factor X (FXa).
A short description of series [1]: physchem.
Another series concerns the target Trypsin (Homo sapiens, UniProt P07477+P07478+P35030). Description: Inhibition of Trypsin. The format is protein assay.
Series [2] can be described thus: in vivo. The settings on record: dog, po.
The nature of series [3]: in vivo. Particulars: dog, po. The source holds these as a separate data set.
The nature of series [4]: physchem. Particulars: octanol/water.
Series [5] is described as follows: in vivo. The settings on record: dog, iv.
The nature of series [6]: in vivo. Particulars: dog.
Series [7] is described as follows: in vivo. Particulars: dog. The source holds these as a separate data set.
The species named for series [8] is Oryctolagus cuniculus. Briefly: Dose required for inhibition of thrombus formation in rabbit arterial-venous shunt antithrombosis model. In kind it is functional.
A short description of series [9]: in vivo. The settings on record: dog, po. The source holds these as a separate data set.
The species entered for series [10] is Oryctolagus cuniculus. Briefly: Concentration required for inhibition of thrombus formation in rabbit arterial-venous shunt antithrombosis model. The format is functional, organism-based.
The test system of series [11] is plasma protein binding (Homo sapiens). Briefly: Percentage binding to human plasma proteins.
The nature of series [12]: physchem. The settings on record: octanol/water. The source holds these as a separate data set.

Chain of Coagulation factor X (P00742 41-179 limits assumed): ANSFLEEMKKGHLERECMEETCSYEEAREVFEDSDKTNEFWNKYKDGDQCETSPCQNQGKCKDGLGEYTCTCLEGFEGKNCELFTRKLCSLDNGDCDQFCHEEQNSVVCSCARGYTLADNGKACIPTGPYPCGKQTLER
Chain of Coagulation factor X (P00742 235-488 limits assumed): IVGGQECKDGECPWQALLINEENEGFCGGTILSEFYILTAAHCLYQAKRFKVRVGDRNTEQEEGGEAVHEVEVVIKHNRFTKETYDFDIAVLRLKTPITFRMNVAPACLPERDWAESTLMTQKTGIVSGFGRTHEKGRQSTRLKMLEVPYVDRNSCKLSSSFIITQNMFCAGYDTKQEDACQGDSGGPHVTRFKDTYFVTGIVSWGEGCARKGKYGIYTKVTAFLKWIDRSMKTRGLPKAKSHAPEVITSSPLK

Consider `Cc1cc(C(=O)Nc2ccc(-c3ccccc3S(N)(=O)=O)cc2)n(-c2cccc(S(N)(=O)=O)c2)n1`, for which the Ki (as a rule, a measure of affinity in units of concentration, obtained from inhibition or displacement) on Prothrombin was > 21 µM; at Coagulation factor X, 5 µM.

As for `Cc1cc(C(=O)Nc2ccc(-c3ccccc3S(N)(=O)=O)cc2)n(C2CCCNC2)n1` (stereo unspecified), the Ki on Prothrombin was > 21 µM. Further, the pKa (commonly the pH at which an ionisable group is half protonated) in “physchem [1]” came out at 10.

Take `Cc1cc(C(=O)Nc2ccc(-c3ccccc3S(N)(=O)=O)cc2)n(-c2cccc(Cl)c2)n1`: the Ki was > 21 µM on Prothrombin, > 1.6 µM on Trypsin and 0.037 µM at Coagulation factor X.

As to `Cc1cc(C(=O)Nc2ccc(-c3ccccc3S(N)(=O)=O)cc2)n(CCCCN)n1`, the figures for the inhibitory constant (Ki) at Prothrombin and at Coagulation factor X were > 21 µM and 12 µM, respectively. Moreover, in “physchem [1]”, the pKa is 10.

With `Cc1cc(C(=O)Nc2ccc(-c3ccccc3S(N)(=O)=O)cc2)n(-c2ccc3nc(N)nc(N)c3c2)n1`, the results for the inhibitory constant (Ki) on Prothrombin, at Trypsin and at Coagulation factor X were > 21 µM, > 1.6 µM and 0.016 µM, respectively. For the same compound, the pKa in the series “physchem [1]” came to 8.1.

As to `Cc1cc(C(=O)Nc2ccc(-c3ccccc3S(N)(=O)=O)cc2)n(-c2ccc3ccncc3c2)n1`, the Ki at Prothrombin was > 21 µM; at Trypsin, > 1.6 µM; at Coagulation factor X, 0.37 µM. Besides, in the series “physchem [1]”, the pKa was 5.4.

With `Cc1cc(C(=O)Nc2ccc(-c3ccccc3S(N)(=O)=O)cc2)n(-c2cccc(C(N)=O)c2)n1`, the inhibition constant Ki at Prothrombin is > 21 µM; at Trypsin, > 1.6 µM. Moreover, the bioavailability (as a rule, the share of a dose that reaches the circulation, judged against a reference dose that is usually intravenous) in “in vivo [2]” amounted to 46%. The pKa in “physchem [1]” is < 0. Further, the half-life (in general, the time needed for the level to fall by half in the phase considered) is 3.9 h in “in vivo [3]” and 3.1 h in “in vivo [5]”. In addition, in the series “physchem [4]”, the logP (usually a log measure of how a compound divides between an organic and an aqueous phase) was 2.1. Besides, the clearance (commonly the rate of elimination divided by the concentration) in “in vivo [6]” was 4.67 mL/min/kg.

Turning to `Cc1cc(C(=O)Nc2ccc(-c3ccccc3S(N)(=O)=O)cc2)n(-c2ccc(N)nc2)n1`, the Ki at Prothrombin was > 2.1 µM; at Coagulation factor X, 1.3 µM. For the same compound, the pKa in the series “physchem [1]” stood at 7.

Regarding `Cc1cc(C(=O)Nc2ccc(-c3ccccc3S(N)(=O)=O)cc2)n(-c2cccc(N)c2)n1`, the figures for the Ki at Prothrombin, at Trypsin and at Coagulation factor X were > 21 µM, > 1.6 µM and 0.063 µM, respectively. Moreover, the pKa in the series “physchem [1]” was 4.7.

Regarding `Cc1cc(C(=O)Nc2ccc(-c3ccccc3S(N)(=O)=O)cc2)n(-c2ccc3[nH]nc(N)c3c2)n1`, the inhibitory constant (Ki) at Prothrombin was > 21 µM; at Coagulation factor X it was 0.029 µM.

In the case of `Cc1cc(C(=O)Nc2ccc(-c3ccccc3S(N)(=O)=O)cc2)n(-c2ccccc2N)n1`, the inhibition constant Ki is > 21 µM on Prothrombin and 0.6 µM on Coagulation factor X. Besides, in “physchem [1]”, the pKa turned out to be 4.7.

Consider `Cc1cc(C(=O)Nc2ccc(-c3ccccc3S(N)(=O)=O)cc2)n(-c2ccc(N)cc2)n1`, for which the figures for the Ki on Prothrombin and on Coagulation factor X were > 21 µM and 3 µM, respectively. Besides, the pKa in the series “physchem [1]” was determined as 4.7.

Consider `COc1ccc(-n2nc(C)cc2C(=O)Nc2ccc(-c3ccccc3S(N)(=O)=O)cc2)cc1`, for which the inhibition constant (Ki) was > 21 µM at Prothrombin, > 1.6 µM at Trypsin and 0.011 µM at Coagulation factor X. In the series “in vivo [2]”, this compound gave a bioavailability of 48%. For the same compound, the distribution volume (Vd) – broadly, the apparent volume that relates the amount in the body to the concentration in plasma or blood – in “in vivo [7]” turned out to be 0.52 L/kg. In addition, in “physchem [1]”, the pKa was < 0. In addition, the half-life in “in vivo [3]” and in “in vivo [5]” was 4.5 h each time. In “physchem [4]”, this compound registered a logP of 2.9. The clearance in “in vivo [6]” was 1.5 mL/min/kg.

As for `Cc1cc(C(=O)Nc2ccc(-c3ccccc3S(N)(=O)=O)cc2)n(-c2ccc3ncnc(N)c3c2)n1`, the Ki at Prothrombin is > 21 µM; at Trypsin it was > 1.6 µM; on Coagulation factor X it was 0.029 µM. The compound further registered a pKa in the series “physchem [1]” of 5.7.

As for `Cc1cc(C(=O)Nc2ccc(-c3ccccc3S(N)(=O)=O)cc2)n(-c2cccc(CN)c2)n1`, at Prothrombin, the Ki is > 21 µM.

On to `Cc1cc(C(=O)Nc2ccc(-c3ccccc3S(N)(=O)=O)cc2)n(-c2cccc(B(O)O)c2)n1`, for which the inhibition constant (Ki) on Prothrombin is > 21 µM; at Trypsin it was > 1.6 µM; at Coagulation factor X it was 0.061 µM.

`Cc1cc(C(=O)Nc2ccc(-c3ccccc3S(N)(=O)=O)cc2)n(-c2cccc(S(C)=N)c2)n1` (stereo unspecified): the inhibition constant (Ki) at Prothrombin was > 21 µM; at Coagulation factor X, 2.7 µM.

For the compound `Cc1cc(C(=O)Nc2ccc(-c3ccccc3S(N)(=O)=O)cc2)n(-c2cccc(C(=N)NO)c2)n1`, the Ki is > 21 µM at Prothrombin, > 1.6 µM at Trypsin and 0.019 µM at Coagulation factor X. This compound also yielded a pKa in “physchem [1]” of 7.

Regarding `Cc1cc(C(=O)Nc2ccc(-c3ccccc3S(N)(=O)=O)cc2)n(-c2ccccc2)n1`, the Ki was > 21 µM at Prothrombin, > 1.6 µM at Trypsin and 0.198 µM at Coagulation factor X.

With `Cc1cc(C(=O)Nc2ccc(-c3ccccc3S(N)(=O)=O)cc2)n(-c2cccc(C#N)c2)n1`, the Ki is > 21 µM on Prothrombin and 0.31 µM at Coagulation factor X.

Take `Cc1cc(C(=O)Nc2ccc(-c3ccccc3S(N)(=O)=O)cc2)n(-c2ccc3ccnc(N)c3c2)n1`: the ID50 in the series filed under Oryctolagus cuniculus [8] is 1.2 µM/h/kg. In addition, the Ki at Prothrombin was determined as 6.5 µM; on Trypsin it was 2.6 µM; at Coagulation factor X, 0.00033 µM. In the series “in vivo [9]”, this compound yielded a bioavailability of 13%. Moreover, in the series filed under Oryctolagus cuniculus [10], half-maximal inhibition (IC50) was put at 0.69 µM. In the series “in vivo [7]”, the Vd is 1.2 L/kg. Moreover, the pKa in “physchem [1]” worked out at 6.7. In addition, the Binding in [11] was determined as 89%. The half-life in “in vivo [3]” is 4.4 h; in “in vivo [5]” it was 3.4 h. Moreover, the lipophilicity (logP) in the series “physchem [4]” was found to be 2.6. The same compound showed a clearance in “in vivo [6]” of 5.5 mL/min/kg.

On to `Cc1cc(C(=O)Nc2ccc(-c3ccccc3S(N)(=O)=O)cc2)n(-c2ccc3c(N)[nH]nc3c2)n1`, for which the figures for the Ki at Prothrombin, on Trypsin and at Coagulation factor X were > 21 µM, > 1.6 µM and 2.8 µM, respectively.

For the compound `Cc1cc(C(=O)Nc2ccc(-c3ccccc3S(N)(=O)=O)cc2)n(-c2ccc3onc(N)c3c2)n1`, the inhibition constant (Ki) at Prothrombin is > 21 µM; on Trypsin it was > 1.6 µM; on Coagulation factor X, 0.0014 µM. In the series “in vivo [2]”, this compound returned a bioavailability of 26%. For the same compound, the volume of distribution (Vd) in the series “in vivo [7]” is 0.7 L/kg. Moreover, the logP in the series “physchem [12]” is 2.3. For the same compound, the pKa in “physchem [1]” is < 2.3. Further, the values for the half-life in the series “in vivo [3]” and in the series “in vivo [5]” were 3.2 h and 2.8 h, respectively. Further, in the series “in vivo [6]”, the clearance was 5 mL/min/kg.

Source of the values: ChEMBL document CHEMBL1145122, “Structure-based design of novel guanidine/benzamidine mimics: potent and orally bioavailable factor Xa inhibitors as novel anticoagulants” (J Med Chem, 2003).
